Molecular target: CB1-receptor (UniProt P20272)
Assay: In-vitro determination of affinity (binding) to CB1-receptors, radioligand [3H]-CP55940
Set-up: IC50; Ki; species or system human or rat
Settings: Pharmacological Methods Part I
Method: I. In-Vitro Determination of Affinity to CB1/CB2-Receptors
The in-vitro determination of the affinity of the inventive substituted pyrazoline compounds to CB1/CB2-Rezeptors is carried out as described in the publication of Ruth A. Ross, Heather C. Brockie et al., “Agonist-inverse agonist characterisation at CB1 and CB2 cannabinoid receptors of L-759633, L759656 and AM630”, British Journal of Pharmacology, 126, 665-672, (1999), whereby the transfected human CB1 and CB2 receptors of Receptor Biology, Inc. are used. The radioligand used for both receptors is [^3H]-CP55940. The respective parts of the description is hereby incorporated by reference and forms part of the present disclosure.
Rat Cerebellum CB1 Binding
Binding affinity to CB1 receptor was evaluated according to a modification of the method described by Govaerts et al., Eur J Pharmac Sci 23, 233-243 (2004). The respective parts of the description is hereby incorporated by reference and forms part of the present disclosure.
Briefly, cerebellum from male wistar rats (250-300 g) were carefully dissected on ice and homogenates were prepared with Potter-Helveheim in a cold 50 mM Tris-HCl solution containing 5 mM MgCl2, 1 mM EDTA and 0.25 M sucrose, pH 7.4. The suspension was centrifuged at 1,000×g for 5 minutes. The supernatants were collected and centrifuged 50,000×g for 15 minutes. The resulting pellets were then resuspended in Tris-HCl buffer without sucrose, homogenised and incubated for 15 min at 37° C. in an orbital shaker bath and centrifuged again at 50,000×g for 15 min. Pellets were weighted, resuspended in Tris-HCl buffer without sucrose, homogenised with Ultraturrax at 13,500 rpm for 3×5 seconds and alicuoted in 0.9 ml volumes in Eppendorf tubes. Alicuotes were centrifuged at 20,800×g for 5 minutes, supernatants discarded and pellets were frozen at −80° C. until use. Total protein concentration was determined using the Bio-Rad Lowry method based kit. Competitive binding experiments were performed in presence of 1 nM [^3H]-CP 55,940 in siliconised glass tubes containing 100 μg protein/tube resuspended in 1 ml final volume of 50 mM Tris-HCl, 5 mM MgCl2, 1 mM EDTA, 0.5% (w/v) bovine serum albumin, pH 7.4. Compounds were present at various concentrations and the non specific binding was determined in the presence of 10 μM HU-210. After 1 hour incubation at 30° C., the suspension was rapidly filtered through 0.5% PEI pre-treated GF/B fiber filters on a 96-well harvester and washed 3 times with 3 ml ice-cold binding buffer without bovine serum albumin. Radioactivity on filters was measured with Wallac Winspectral 1414 counter by liquid scintillation in 6 ml Ecoscint H (National Diagnostics, U.K.). Assays were made in triplicates.
Binding data were analysed by non-linear regression with the software GraphPad Prism Version 3.03.
The binding of the pyrazoline compounds of general formulae I, Ia and Ib to CB1-receptors was determined according to the method described in the section Pharmacological Methods, Part I.

Row | Structure (SMILES) | IC50 | Ki
1 | CCOc1ccc(C2CC(CNS(=O)(=O)c3cc(F)ccc3C)=NN2c2ccc(Cl)cc2Cl)cc1 (stereo not drawn) [Example 102, N-[1-(2,4-Dichloro-phenyl)-5-(4-ethoxy-phenyl)-4,5-dihydro-1H-pyrazol-3-ylmethyl]-5-fluoro-2-methyl-benzenesulfonamide] | 7.2 nM | 3 nM
2 | CCOc1ccc(C2CC(CNS(=O)(=O)c3ccccc3Br)=NN2c2ccc(Cl)cc2Cl)cc1 (stereo not drawn) [Example 249, 2-Bromo-N-[1-(2,4-dichloro-phenyl)-5-(4-ethoxy-phenyl)-4,5-dihydro-1H-pyrazol-3-ylmethyl]-benzenesulfonamide] | 5.6 nM | 2.4 nM
3 | Cc1ccc(C)c(S(=O)(=O)NCC2=NN(c3ccc(Cl)cc3Cl)C(c3ccc(Br)cc3)C2)c1 (stereo not drawn) [Example 280, N-[5-(4-Bromo-phenyl)-1-(2,4-dichloro-phenyl)-4,5-dihydro-1H-pyrazol-3-ylmethyl]-2,5-dimethyl-benzenesulfonamide] | 42 nM | 17.5 nM
4 | Cc1ccc(C)c(S(=O)(=O)NCC2=NN(c3ccc(Cl)cc3Cl)[C@@H](c3ccc(Cl)cc3)C2)c1 [Example 69, (R)-N-[5-(4-Chloro-phenyl)-1-(2,4-dichloro-phenyl)-4,5-dihydro-1H-pyrazol-3-ylmethyl]-2,5-dimethyl-benzenesulfonamide] | 36.7 nM | 16.2 nM
5 | CCOc1ccc(C2CC(CNS(=O)(=O)c3cccc(F)c3)=NN2c2ccc(Cl)cc2Cl)cc1 (stereo not drawn) [Example 261, N-[1-(2,4-Dichloro-phenyl)-5-(4-ethoxy-phenyl)-4,5-dihydro-1H-pyrazol-3-ylmethyl]-3-fluoro-benzenesulfonamide] | 9.8 nM | 9.8 nM
6 | Cc1ccc(F)cc1S(=O)(=O)NCC1=NN(c2ccc(Cl)cc2Cl)C(c2ccc(Br)cc2)C1 (stereo not drawn) [Example 277, N-[5-(4-Bromo-phenyl)-1-(2,4-dichloro-phenyl)-4,5-dihydro-1H-pyrazol-3-ylmethyl]-5-fluoro-2-methyl-benzenesulfonamide] | 43 nM | 18.2 nM
7 | CCOc1ccc(C2CC(CNS(=O)(=O)c3cc(C(F)(F)F)ccc3Cl)=NN2c2ccc(Cl)cc2Cl)cc1 (stereo not drawn) [Example 101, 2-Chloro-N-[1-(2,4-dichloro-phenyl)-5-(4-ethoxy-phenyl)-4,5-dihydro-1H-pyrazol-3-ylmethyl]-5-trifluoromethyl-benzenesulfonamide] | 12.8 nM | 5.6 nM
8 | CCOc1ccc(C2CC(CNS(=O)(=O)c3cccc(C#N)c3)=NN2c2ccc(Cl)cc2Cl)cc1 (stereo not drawn) [Example 271, 3-Cyano-N-[1-(2,4-dichloro-phenyl)-5-(4-ethoxy-phenyl)-4,5-dihydro-1H-pyrazol-3-ylmethyl]-benzenesulfonamide] | 10.2 nM | 4.4 nM
9 | COc1ccc(C2CC(CNS(=O)(=O)c3ccccc3Cl)=NN2c2ccc(Cl)cc2Cl)cc1 (stereo not drawn) [Example 217, 2-Chloro-N-[1-(2,4-dichloro-phenyl)-5-(4-methoxy-phenyl)-4,5-dihydro-1H-pyrazol-3-ylmethyl]-benzenesulfonamide] | 69 nM | 30.8 nM
10 | Cc1cc(S(=O)(=O)NCC2=NN(c3ccc(Cl)cc3Cl)[C@@H](c3ccc(Cl)cc3)C2)c(C)cc1Cl [Example 67, (R)-4-Chloro-N-[5-(4-chloro-phenyl)-1-(2,4-dichloro-phenyl)-4,5-dihydro-1H-pyrazol-3-ylmethyl]-2,5-dimethyl-benzenesulfonamide] | 91 nM | 40.6 nM
11 | CCOc1ccc(C2CC(CNS(=O)(=O)c3cc(Cl)ccc3F)=NN2c2ccc(Cl)cc2Cl)cc1 (stereo not drawn) [Example 100, 5-Chloro-N-[1-(2,4-dichloro-phenyl)-5-(4-ethoxy-phenyl)-4,5-dihydro-1H-pyrazol-3-ylmethyl]-2-fluoro-benzenesulfonamide] | 30.8 nM | 12.8 nM
12 | CCOc1ccc(C2CC(CNS(=O)(=O)c3ccccc3F)=NN2c2ccc(Cl)cc2Cl)cc1 (stereo not drawn) [Example 98, N-[1-(2,4-Dichloro-phenyl)-5-(4-ethoxy-phenyl)-4,5-dihydro-1H-pyrazol-3-ylmethyl]-2-fluoro-benzenesulfonafonamide] | 47.1 nM | 19.8 nM
13 | Cc1ccc(F)cc1S(=O)(=O)NCC1=NN(c2ccc(Cl)cc2Cl)[C@@H](c2ccc(Cl)cc2)C1 [Example 63, (R)-N-[5-(4-Chloro-phenyl)-1-(2,4-dichloro-phenyl)-4,5-dihydro-1H-pyrazol-3-ylmethyl]-5-fluoro-2-methyl-benzenesulfonamide] | 50.4 nM | 21 nM
14 | CCOc1ccc(C2CC(CNS(=O)(=O)c3cc(C)ccc3C)=NN2c2ccc(Cl)cc2Cl)cc1 (stereo not drawn) [Example 103, N-[1-(2,4-Dichloro-phenyl)-5-(4-ethoxy-phenyl)-4,5-dihydro-1H-pyrazol-3-ylmethyl]-2,5-dimethyl-benzenesulfonamide] | 12.1 nM | 5.3 nM
15 | O=S(=O)(NCC1=NN(c2ccc(Cl)cc2Cl)[C@@H](c2ccc(Cl)cc2)C1)c1ccccc1 [Example 194, (R)-N-[5-(4-Chloro-phenyl)-1-(2,4-dichloro-phenyl)-4,5-dihydro-1H-pyrazol-3-ylmethyl]-benzenesulfonamide] | 88.9 nM | 38.3 nM
16 | Cc1ccc(F)cc1S(=O)(=O)NCC1=NN(c2ccc(Cl)cc2Cl)[C@@H](c2ccc(Cl)cc2)[C@H]1C [Example 74, (4R,5R)-N-[5-(4-Chloro-phenyl)-1-(2,4-dichloro-phenyl)-4-methyl-4,5-dihydro-1H-pyrazol-3-ylmethyl]-5-fluoro-2-methyl-benzenesulfonamide] | 11 nM | 5.1 nM
17 | Cc1ccc(C)c(S(=O)(=O)NCC2=NN(c3ccc(Cl)cc3Cl)[C@@H](c3ccc(Cl)cc3)[C@H]2C)c1 (racemic) [Example 83, cis-(4RS,5RS)-N-[5-(4-Chloro-phenyl)-1-(2,4-dichloro-phenyl)-4-methyl-4,5-dihydro-1H-pyrazol-3-ylmethyl]-2,5-dimethyl-benzenesulfonamide] | 50.5 nM | 21.4 nM
18 | COc1ccc(C2CC(CNS(=O)(=O)c3cccc(OC)c3)=NN2c2ccc(Cl)cc2Cl)cc1 (stereo not drawn) [Example 221, N-[1-(2,4-Dichloro-phenyl)-5-(4-methoxy-phenyl)-4,5-dihydro-1H-pyrazol-3-ylmethyl]-3-methoxy-benzenesulfonamide] | 52.7 nM | 23.5 nM
19 | CCOc1ccc(C2CC(CNS(=O)(=O)c3cc(C)c(Cl)cc3C)=NN2c2ccc(Cl)cc2Cl)cc1 (stereo not drawn) [Example 247, 4-Chloro-N-[1-(2,4-dichloro-phenyl)-5-(4-ethoxy-phenyl)-4,5-dihydro-1H-pyrazol-3-ylmethyl]-2,5-dimethyl-benzenesulfonamide] | 65.5 nM | 27.7 nM
20 | O=S(=O)(NCC1=NN(c2ccc(Cl)cc2Cl)C(c2ccc(Cl)cc2)C1)c1cc(C(F)(F)F)ccc1Cl (stereo not drawn) [Example 81, 2-Chloro-N-[5-(4-chloro-phenyl)-1-(2,4-dichloro-phenyl)-4,5-dihydro-1H-pyrazol-3-ylmethyl]-5-trifluoromethyl-benzenesulfonamide] | 15.2 nM | 6.9 nM
21 | Cc1ccc([N+](=O)[O-])cc1S(=O)(=O)NCC1=NN(c2ccc(Cl)cc2Cl)C(c2ccc(Cl)cc2)C1 (stereo not drawn) [Example 142, N-[5-(4-Chloro-phenyl)-1-(2,4-dichloro-phenyl)-4,5-dihydro-1H-pyrazol-3-ylmethyl]-2-methyl-5-nitro-benzenesulfonamide] | 5.5 nM | 2.3 nM

Source: US8044053B2, “Sulfonamide substituted pyrazoline compounds, their preparation and use as CB1 modulators” (Laboratories del Dr. Esteve, S.A., priority 2006, dated 2011)
